# Test results: patent publication US20160060260A1, “BROMODOMAIN INHIBITORS FOR TREATING DISEASE” (Board of Regents, The University of Texas System, priority 2014, published 2016)
# Biological target: T1, Recombinant human His-tagged Trim24-PHD-bromodomain (Homo sapiens, UniProt O15164)
# T1 construct: Recombinant human His-tagged Trim24-PHD-bromodomain (produced in-house); made in house
# T1 sequence (O15164 824-1006 limits assumed): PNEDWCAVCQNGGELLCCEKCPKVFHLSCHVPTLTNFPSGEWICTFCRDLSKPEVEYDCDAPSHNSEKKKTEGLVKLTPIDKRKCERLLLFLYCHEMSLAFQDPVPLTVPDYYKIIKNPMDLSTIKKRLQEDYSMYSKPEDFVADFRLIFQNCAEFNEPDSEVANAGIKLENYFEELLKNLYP
# Assay: Trim24 AlphaScreen Assay
# Format: binding
# Conditions: 5 nM Trim24 protein, 15 nM biotinylated H3K23ac (1-33aa) peptide
# Outline: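 AlphaScreen read-out after 2 h with streptavidin donor and Ni-chelate acceptor beads at 10 ug/mL each, following 1 h room-temperature incubation of compound, His-tagged PHD-bromodomain protein and biotin-H3K23ac (1-33aa) peptide in Hepes pH 7.5 buffer with NaCl and Triton X-100. Signals normalised between no-compound and no-protein wells; IC50 from four-parameter logistic curves.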
row,SMILES,IC50 [nM]
1,"COCCCOc1cc(C#N)cc(Oc2cc3c(cc2NS(=O)(=O)c2ccn(C)n2)n(C)c(=O)n3C)c1 [Example 121, N-(6-(3-cyano-5-(3-methoxypropoxy)phenoxy)-1,3-dimethyl-2-oxo-2,3-dihydro-1H-benzo[d]imidazol-5-yl)-1-methyl-1H-pyrazole-3-sulfonamide]",100 to 1000
2,"CCCOc1cc(OCCCOC)cc(Oc2cc3c(cc2NS(=O)(=O)c2cn(C)cn2)n(C)c(=O)n3C)c1 [Example 152, N-(6-(3-(3-methoxypropoxy)-5-propoxyphenoxy)-1,3-dimethyl-2-oxo-2,3-dihydro-1H-benzo[d]imidazol-5-yl)-1-methyl-1H-imidazole-4-sulfonamide]",10 to 100
3,"Cn1cnc(S(=O)(=O)Nc2cc3c(cc2Oc2cccc(OCCCC#N)c2)n(C)c(=O)n3C)c1 [Example 97, N-(6-(3-(3-cyanopropoxy)phenoxy)-1,3-dimethyl-2-oxo-2,3-dihydro-1H-benzo[d]imidazol-5-yl)-1-methyl-1H-imidazole-4-sulfonamide]",100 to 1000
4,"CCCOc1cc(OCCCOC)cc(Oc2cc3c(cc2NS(=O)(=O)c2cn4c(n2)CCCC4)n(C)c(=O)n3C)c1 [Example 140, N-(6-(3-(3-methoxypropoxy)-5-propoxyphenoxy)-1,3-dimethyl-2-oxo-2,3-dihydro-1H-benzo[d]imidazol-5-yl)-5,6,7,8-tetrahydroimidazo[1,2-a]pyridine-2-sulfonamide]",10 to 100
5,"COc1cc(OC)cc(S(=O)(=O)Nc2cc3c(cc2Oc2cccc(OCc4ccccc4)c2)n(C)c(=O)n3C)c1 [Example 44, N-(6-(3-(benzyloxy)phenoxy)-1,3-dimethyl-2-oxo-2,3-dihydro-1H-benzo[d]imidazol-5-yl)-3,5-dimethoxybenzenesulfonamide]",100 to 1000
6,"Cn1cnc(S(=O)(=O)Nc2cc3c(cc2Oc2cccc(OCC(C)(O)CN)c2)n(C)c(=O)n3C)c1 (stereo not drawn) [Example 234, N-{6-[3-(3-amino-2-hydroxy-2-methylpropoxy)phenoxy]-1,3-dimethyl-2-oxo-2,3-dihydro-1H-1,3-benzodiazol-5-yl}-1-methyl-1H-imidazole-4-sulfonamide]",> 1000
7,"CCCOc1cc(OCCCOC)cc(Oc2cc3c(cc2NS(=O)(=O)c2cccc(C#N)c2)n(C)c(=O)n3C)c1 [Example 165, 3-cyano-N-(6-(3-(3-methoxypropoxy)-5-propoxyphenoxy)-1,3-dimethyl-2-oxo-2,3-dihydro-1H-benzo[d]imidazol-5-yl)benzenesulfonamide]",10 to 100
8,"CCCOc1cccc(Oc2cc3c(cc2NS(=O)(=O)c2cccc(OC)c2)n(C)c(=O)n3C)c1 [Example 170, N-(1,3-dimethyl-2-oxo-6-(3-propoxyphenoxy)-2,3-dihydro-1H-benzo[d]imidazol-5-yl)-3-methoxybenzenesulfonamide]",100 to 1000
9,"Cn1cnc(S(=O)(=O)Nc2cc3c(cc2Oc2cc(OCCCCCCN)cc(OCC(F)(F)F)c2)n(C)c(=O)n3C)c1 [Example 202, N-(6-(3-((6-aminohexyl)oxy)-5-(2,2,2-trifluoroethoxy)phenoxy)-1,3-dimethyl-2-oxo-2,3-dihydro-1H-benzo[d]imidazol-5-yl)-1-methyl-1H-imidazole-4-sulfonamide]",1 to 10
10,"COc1ccc(S(=O)(=O)Nc2cc3c(cc2Oc2cc(OCCCCCCN)cc(OCC(F)(F)F)c2)n(C)c(=O)n3C)cc1OC [Example 194, N-(6-(3-((6-aminohexyl)oxy)-5-(2,2,2-trifluoroethoxy)phenoxy)-1,3-dimethyl-2-oxo-2,3-dihydro-1H-benzo[d]imidazol-5-yl)-3,4-dimethoxybenzenesulfonamide]",10 to 100
11,"COCCCOc1cccc(Oc2cc3c(cc2NS(=O)(=O)c2cn(C)cn2)n(C)c(=O)n3C)c1 [Example 68, N-(6-(3-(3-methoxypropoxy)phenoxy)-1,3-dimethyl-2-oxo-2,3-dihydro-1H-benzo[d]imidazol-5-yl)-1-methyl-1H-imidazole-4-sulfonamide]",100 to 1000
12,"CCCOc1cc(OCCCCCCN(C)C)cc(Oc2cc3c(cc2NS(=O)(=O)c2cnn(C)c2C)n(C)c(=O)n3C)c1 [Example 219, N-(6-(3-((6-(dimethylamino)hexyl)oxy)-5-propoxyphenoxy)-1,3-dimethyl-2-oxo-2,3-dihydro-1H-benzo[d]imidazol-5-yl)-1,5-dimethyl-1H-pyrazole-4-sulfonamide]",1 to 10
13,"COc1ccc(S(=O)(=O)Nc2cc3c(cc2Oc2cccc(OCc4ccccc4)c2)n(C)c(=O)n3C)cc1OC [Example 1, N-(6-(3-(benzyloxy)phenoxy)-1,3-dimethyl-2-oxo-2,3-dihydro-1H-benzo[d]imidazol-5-yl)-3,4-dimethoxybenzenesulfonamide]",100 to 1000
14,"CCCOc1cc(OCCCCCCO)cc(Oc2cc3c(cc2NS(=O)(=O)c2ccc(OC)c(OC)c2)n(C)c(=O)n3C)c1 [Example 179, N-(6-(3-((6-hydroxyhexyl)oxy)-5-propoxyphenoxy)-1,3-dimethyl-2-oxo-2,3-dihydro-1H-benzo[d]imidazol-5-yl)-3,4-dimethoxybenzenesulfonamide]",10 to 100
15,"COc1cccc(S(=O)(=O)Nc2cc3c(cc2Oc2cccc(OCc4ccccc4)c2)n(C)c(=O)n3C)c1 [Example 18, N-(6-(3-(benzyloxy)phenoxy)-1,3-dimethyl-2-oxo-2,3-ddihydro-1H-benzo[d]imidazol-5-yl)-3-methoxybenzenesulfonamide]",100 to 1000
16,"CCCOc1cc(OCC2CC2)cc(Oc2cc3c(cc2NS(=O)(=O)c2cccnc2)n(C)c(=O)n3C)c1 [Example 118, N-(6-(3-(cyclopropylmethoxy)-5-propoxyphenoxy)-1,3-dimethyl-2-oxo-2,3-dihydro-1H-benzo[d]imidazol-5-yl)pyridine-3-sulfonamide]",10 to 100
17,"CCCOc1cc(OCCCCN2CCC2)cc(Oc2cc3c(cc2NS(=O)(=O)c2ccc(OC)c(OC)c2)n(C)c(=O)n3C)c1 [Example 251, N-(6-{3-[4-(azetidin-1-yl)butoxy]-5-propoxyphenoxy}-1,3-dimethyl-2-oxo-2,3-dihydro-1H-1,3-benzodiazol-5-yl)-3,4-dimethoxybenzene-1-sulfonamide]",1 to 10
18,"Cc1c(S(=O)(=O)Nc2cc3c(cc2Oc2cc(OCCCCN)cc(OCC(F)(F)F)c2)n(C)c(=O)n3C)cnn1C [Example 209, N-(6-(3-(4-aminobutoxy)-5-(2,2,2-trifluoroethoxy)phenoxy)-1,3-dimethyl-2-oxo-2,3-dihydro-1H-benzo[d]imidazol-5-yl)-1,5-dimethyl-1H-pyrazole-4-sulfonamide]",1 to 10
19,"Cn1cnc(S(=O)(=O)Nc2cc3c(cc2Oc2cccc(OCCCC(F)(F)F)c2)n(C)c(=O)n3C)c1 [Example 84, N-(1,3-dimethyl-2-oxo-6-(3-(4,4,4-trifluorobutoxy)phenoxy)-2,3-dihydro-1H-benzo[d]imidazol-5-yl)-1-methyl-1H-imidazole-4-sulfonamide]",100 to 1000
20,"Cn1cnc(S(=O)(=O)Nc2cc3c(cc2Oc2cccc(OCCCCCCN)c2)n(C)c(=O)n3C)c1 [Example 146, N-(6-(3-((6-aminohexyl)oxy)phenoxy)-1,3-dimethyl-2-oxo-2,3-dimethyl-2-oxo-2,3-dihydro-1H-benzo[d]imidazol-5-yl)-1-methyl-1H-imidazole-4-sulfonamide]",100 to 1000
21,"CCCOc1cccc(Oc2cc3c(cc2NS(=O)(=O)c2ccccn2)n(C)c(=O)n3C)c1 [Example 168, N-(1,3-dimethyl-2-oxo-6-(3-propoxyphenoxy)-2,3-dihydro-1H-benzo[d]imidazol-5-yl)pyridine-2-sulfonamide]",10 to 100
